US10905757B2, “Cross-reactive T cell epitopes of HIV, SIV, and FIV for vaccines in humans and cats” (priority 2012, dated 2021)
Ends that are not written are not given here.

Key:
Format in all cases: cell-based, human
[1] = system: CD4+ T cells from HIV+ subjects; assay: Intracellular cytotoxin staining (ICS), CD4+ T cells from HIV+ subjects; set-up: key to CD4^+ T-cell cytotoxins (4C): positive (+); negative (−) response; inhibitory (↓); not done (n); settings: HIV^+ subjects compared to HIV^− control group
Experimental: (§1) Briefly, 1×10^6PBMCs (freshly isolated) are stimulated with 20 μg of peptides for 6 hours in a total volume of 200 μL in a 96-well plate in presence of Golgi transport inhibitor (37° C., 5% CO2). The cells are processed as previously described (Horton et al. (2007)). Cells were stained with the LIVE/DEAD® fixable yellow dye (Invitrogen, Eugene, Oreg.). The monoclonal antibodies fluorochome-conjugated to human cytokines used are: APC-H7 to CD3 (clone SK7); BD Horizon V450 to CD4 (clone RPA-T4); Qdot to CD8 (clone 3B5); PE-cy7 to IFN-γ (clone 4S.B3); APC to IL-2 (clone MQ1-17H12) PerCP to perforin (clone B-D48); Alexa F1.700 to granzyme-B (clone GB11) and PE to granzyme-A (clone CB9). The flow cytometry data is collected using BD LSRII and analyzed with the FACS DIVA software.
(§2) The ICS analysis (Horton et al. (2007)) involved stimulating 0.5-1.0×10^6 freshly isolated PBMC for 6 h with the same peptide stimulant and culture conditions as the proliferation analysis in the presence of 1 μg/mL of Golgi transport inhibitor and monensin followed by labeling with LIVE/DEAD fixable yellow dye and then treatment with anti-CD16/CD32 antibody and T-cell phenotypic antibodies. The cells were subsequently fixed and permeabilized with Cytofix/Cytoperm solution (BD Biosciences) before reaction with anti-cytotoxin antibodies. The antibodies consisted of anti-CD3 APC-H7, anti-CD4 BD Horizon V450, and anti-CD8 FITC followed by anti-GrzB Alexa 700 and anti-GrzA PE (all from BD Biosciences), and anti-perforin PerCP (Abcam, Boston, Mass.).
(§3) In both analyses, 1.0-2.0×10^4 cells were fixed in phosphate-buffered saline (PBS) containing 2% paraformaldehyde and analyzed on BD LSRII using […] Software (BD Biosciences), with a positive threshold of 3% CFSE^low for CFSE-proliferation and 1% T cells expressing cytotoxin for ICS. The final value for each subject was derived after subtraction of the subject's medium control and the average value of peptide-stimulated cells from uninfected control subjects.
(§4) Flow cytometry (FACS) for measuring CFSE-proliferation and intracellular cytokine staining (ICS). Carboxyfluorescein diacetate succinimide ester (CFSE)-proliferation analysis was performed according to the manufacturer's protocol (Invitrogen) and processed as previously described (Lichterfeld et al. 2004) using the following modification: 2.5-5.0×10^5 CFSE-labeled PBMC stimulated for 4-5 days (37° C., 5% CO2) with 15-30 μg of peptides in culture media (AIM V medium, 25 μg/mL gentamycin, and 10% heat-inactivated fetal bovine serum). The ICS analysis was performed as previously described (Horton et al. 2007; Pattacini et al. 2012).
(§5) The antibodies used for the proliferation analysis consisted of anti-CD4 allophycocyanin (APC) anti-CD3 APC-H7, and anti-CD8 Pacific Blue, and those for ICS were anti-CD3 APC-H7, anti-CD4 BD Horizon V450, anti-CD8 FITC, anti-granzyme B (GrzB) Alexa 700, anti-granzyme A (GrzA) PE (BD Biosciences, Cat #555349, 560176, 558207, 560345, 555366, 560213, 558904), and anti-perforin PerCP (Abcam, Cat #ab86319). Both analyses were performed with BD LSRII and […]™ Software (BD Biosciences), using a positive threshold of >1% CFSE^low for CFSE-proliferation except for ICS studies with threshold of >0.1% T cells expressing cytotoxin. The final value for each subject was derived after subtracting the result of each HIV^+ subject with the media control followed by subtraction with the average response of the media-control subtracted HIV^− subjects.

[2] = system: CD8+ T cells from HIV+ subjects; assay: Intracellular cytotoxin staining (ICS: perforin, GrzA, GrzB, CD107a), CD8+ T cells from HIV+ subjects; set-up: key to CD8^+ T-cell cytotoxins (8C): positive (+); negative (−) response; inhibitory (↓); not done (n); settings: for CD8^+ T-cell cytotoxins (8C): HIV^+ subjects compared to HIV^− control group
Experimental: as §1, §2, §3, §4, §5

PBMC from HIV+ subjects = assay: IFNγ ELISpot, PBMC from HIV+ subjects; settings: positive responses over total tested; F3 responders (H3 responders for H3-3)
Experimental: 1.0×10^5-2.0×10^5 PBMCs were stimulated with peptides (15 μg peptide/well) in ELISpot plates for 18 hours in AIMS V medium (at 10% normal human serum). The spots were counted with an ELISpot reader and adjusted to spot forming units (SFU) per 10^6 cells.
Positive reactivity was defined at ≥70 SFU/10^6 cells after subtracting the background derived from non-specific peptide control or media control, and the average of 3 HIV-1 negative controls (<30 SFU/10^6 cells).
ELISpot assays. Enzyme-linked immunosorbent spot assays (ELISpot) for IFNγ (R&D Systems, Minneapolis, Minn.) were performed with AIM V medium containing 5% heat-inactivated (56° C., 30 min) human serum as previously described (Abbott et al. (2012)). The PBMC from HIV+ subjects were stimulated with either peptide pool (4-5 consecutive peptides per pool at 5 μg per peptide) or individual peptide (15 μg/well). The peptides were 11-16 aa in length with 8-10 aa overlap. The results were analyzed with an ELISpot reader (MVS Pacific LLC, Minneapolis, Minn.) and adjusted to spot forming units (SFU) per 10^6 cells, after subtraction of the average medium control for each subject. The PBMC from HIV+ subjects were stimulated with T-cell mitogen, phytohemaglutinin A (PHA, 5 μg/mL), as positive control. At a positive threshold of 70 SFU, HIV− subjects had no substantial IFNγ responses (>50 SFU) to HIV and FIV peptide pools.
ELISpot assays. Human enzyme-linked immunosorbent spot assays (ELISpot) (R&D Systems, Cat #XEL285) which measure IFNγ production were performed (Abbott et al. 2011). The positive threshold for human IFNγ responses was >50 spot forming units (SFU)/10^6 cells. The final value for each subject was derived after subtracting the result of each HIV^+ subject with the media control followed by subtraction with the average response of the HIV^− subjects which was rarely more than 10 SFU.

[3] = system: CD3+CD8+ T cells from HIV+ subjects; assay: CFSE-proliferation, CD3+CD8+ T cells from HIV+ subjects; settings: positive responses over total tested; F3 responders (H3 responders for H3-3)
Experimental: 2×10^5-5×10^5 CFSE labeled PBMCs were incubated with 15-20 μg of peptides in 600 μL of RPMI media with 10% FBS for 5 days at 37° C. (5% CO2). After harvesting, they were labeled with allophycocyanin (APC), APC-H7, and Pacific Blue labeled monoclonal antibodies (MAb) to human CD3, CD4, and CD8, respectively and analyzed for T-cell proliferation by flow cytometry using BD LSRII (BD Biosciences). The proliferating CD4^+ or CD8^+ T cell populations were defined from the CD3^+ cell population as either CD3^+CD8^+ or CD3^+CD4^+T cells (mutually exclusive) with low CFSE (CFSE^low) staining.
Flow cytometry (FACS) for carboxyfluoresein diacetate succinimide ester (CFSE)-proliferation and intracellular cytotoxin staining (ICS). The CFSE-proliferation analysis was performed on PBMC according to the manufacturer's protocol (Invitrogen, Carlsbad, Calif.) and processed as previously described (Lichterfeld et al. (2004)). Modifications consisted of using 2.0-5.0×10^5 CFSE-labeled cells stimulated for 5 days (37° C., 5% CO^2) with 30 μg/well of total peptides in a pool (15 μg/well for individual peptide, Table 10) or 5 μg/mL PHA in AIM V medium containing 25 μg/mL of gentamycin and 10% heat-inactivated human serum. Subsequently these cells were harvested and labeled with the LIVE/DEAD fixable yellow dye (Invitrogen) and then treated 5 min with anti-CD16/CD32 antibody (Biolegend, San Diego, Calif.) for blocking non-specific binding before phenotype-specific antibodies. The following antibodies were used for the CFSE-proliferation analysis: anti-CD4 APC, anti-CD3 APC-H7, and anti-CD8 Pacific Blue (BD Biosciences, San Jose, Calif.).
as §3, §4, §5

[4] = system: CD4+ or CD8+ T cells from HIV+ subjects; assay: Intracellular cytotoxin staining (ICS), CD4+ or CD8+ T cells from HIV+ responders; settings: responders to Fp9 or Fp14 peptide pools
Experimental: Briefly, 1×10^6PBMCs (freshly isolated) are stimulated with 20 μg of peptides for 6 hours in a total volume of 200 μL in a 96-well plate in presence of Golgi transport inhibitor (37° C., 5% CO2). […] Cells were stained with the LIVE/DEAD® fixable yellow dye (Invitrogen, Eugene, Oreg.). […] The flow cytometry data is collected using BD LSRII and analyzed with the FACS DIVA software.
The cells were subsequently fixed and permeabilized with Cytofix/Cytoperm solution (BD Biosciences) before reaction with anti-cytotoxin antibodies. The antibodies consisted of anti-CD3 APC-H7, anti-CD4 BD Horizon V450, and anti-CD8 FITC followed by anti-GrzB Alexa 700 and anti-GrzA PE (all from BD Biosciences), and anti-perforin PerCP (Abcam, Boston, Mass.).
as §3
Flow cytometry (FACS) for measuring CFSE-proliferation and intracellular cytokine staining (ICS).
Both analyses were performed with BD LSRII and […]™ Software (BD Biosciences), using a positive threshold of >1% CFSE^low for CFSE-proliferation except for ICS studies with threshold of >0.1% T cells expressing cytotoxin.

Row | Substance | CD4^+ T-cell cytotoxins (4C) [1] | CD8^+ T-cell cytotoxins (8C) [2] | IFNγ (positive/total) (PBMC from HIV+ subjects) | CD8^+ T Proliferation (positive/total) [3] | also measured
1 | AEVKLYLKQSLSIA [Fp14-3] | + | + | – | – | cytotoxin expression / CTL-associated activity in CD8+ T cells (in words) [2]: highest frequency and levels; HIV+ subjects whose CD8+ T cells responded with one or more cytotoxins ([2]; five HIV+ subjects, individual 13-15mer peptides): five
2 | ASQEVKNWMTETLLV [Hp15-2] | + | + | – | – | –
3 | CAEV & MVV (KKKSGKWRMLIDFRE) | – | – | 1/9 | 0/5 | –
4 | DQEQNTAEVKLYLK [Fp14-1] | + | + | – | – | Cytotoxins [4]: High Cytototoxins (The cytotoxin result is considered high when four or five subjects express one or more cytotoxins in the CD8^+ T cells)
5 | EQNTAEVKLYLKQSL [Fp14-2] | + | + | – | – | –
6 | FIV 3-3 (KR9) (KWRMLIDFR) | – | – | 1/9 | 0/6 | –
7 | FIV 3-3 (WV9) (WRMLIDFRV) | – | – | 8/11 | 1/6 | –
8 | FIV F3-3 (KKKSGKWRMLIDFRV) | – | – | 13/13 | 6/9 | –
9 | FIV F3-3 (KV15) (KKKSGKWRMLIDFRV) | – | – | 13/13 | 6/9 | –
